Measurements published in ChEMBL document CHEMBL1201862, “PubChem BioAssay data set” (2004).
Calls of active or inactive are those of the source.

Experiments:
[1] = NIH-3T3 fibroblast cytotoxicity, dose response, cytotoxicity control, cell-based, fluorescence, Alamar Blue, secondary assay (AID 2327); type: functional;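 note: NIH-3T3 mouse fibroblasts cultured with fluconazole at 8 µg/mL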
[2] = inhibitors of firefly luciferase expression or activity, dose response, H4 neuroglioma cells, luminescence (AID 1990); type: functional, cell-based
[3] = Luminescence Cell-Based Dose Response HTS to Identify Inhibitors of 5'UTR Stem-Loop Driven Prion Protein mRNA Translation in H4 Neuroglioblastoma Cells. [Related pubchem assays: 1827 (Project Summary), 1813 (Primary HTS)]; type: functional
[4] = inhibitors of SNCA 5'UTR-driven reporter translation, confirmation, H4 neuroglioma cells, luminescence (AID 1988); type: functional, cell-based
[5] = C. albicans growth with fluconazole, confirmation, fluorescence, retest (AID 2467); type: functional, cell-based
Jurkat = test: antigen receptor-induced NF-kB inhibitors, dose response, Jurkat, luciferase reporter, luminescence, B- and T-cell (AID 489004); type: functional, cell-based; details: Homo sapiens;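 note: NF-kB luciferase reporter Jurkat cells stimulated with PMA plus ionomycin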
[6] = cytotoxicity in HEK-293T NF-kB-Luc cells, dose response, cytotoxicity control for B/T-cell NF-kB inhibitor project, cell-based, uHTS hits (AID 489019); type: functional;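 note: IC50 reflects cytotoxicity as loss of cell viability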
[7] = biological target: T1, Microphthalmia-associated transcription factor (Homo sapiens, UniProt O75030); test: TRPM1 promoter luciferase signal decrease, dose response, MITF inhibitor project, cell-based, SK-MEL-5, cherry-picked, set 3 (AID 493073); type: functional
T1 sequence (O75030 whole entry): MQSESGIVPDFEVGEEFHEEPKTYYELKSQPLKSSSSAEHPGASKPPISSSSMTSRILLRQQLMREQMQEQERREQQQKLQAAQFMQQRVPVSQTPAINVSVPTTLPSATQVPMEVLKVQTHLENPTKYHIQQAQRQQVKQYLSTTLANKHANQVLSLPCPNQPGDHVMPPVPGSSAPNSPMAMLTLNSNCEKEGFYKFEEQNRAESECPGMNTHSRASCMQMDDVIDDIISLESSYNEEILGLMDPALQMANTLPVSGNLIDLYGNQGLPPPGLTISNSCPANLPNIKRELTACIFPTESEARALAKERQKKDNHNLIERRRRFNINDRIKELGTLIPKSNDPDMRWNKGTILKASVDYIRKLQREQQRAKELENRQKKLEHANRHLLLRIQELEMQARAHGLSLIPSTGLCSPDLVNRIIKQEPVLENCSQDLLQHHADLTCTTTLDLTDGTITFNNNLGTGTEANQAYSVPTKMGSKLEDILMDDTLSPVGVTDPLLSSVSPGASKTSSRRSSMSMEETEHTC

Candida albicans = test: reversal of fluconazole resistance in C. albicans, dose response, CaCi-2 strain, Alamar Blue, dry powder, set 3 (AID 488907); type: functional, organism-based
[8] = growth suppression of PTEN-null colon cells, dose response, cell-based, HCT116 PTEN knockout (AID 1047); type: functional;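 note: HCT116 colon tumor cells with PTEN knocked out; cells exposed to compound for 60 hours before readout; potency for loss of cell viability measured by luminescence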
[9] = growth suppression of beta-catenin-knockout colon cells, dose response, cell-based, HCT116, human colon tumor (AID 1045); type: functional;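 note: HCT116 colon tumor cells with beta catenin knocked out; cells exposed to compound for 60 hours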
A-375 = test: MITF: Counter assay: A375 proliferation Measured in Cell-Based System Using Plate Reader - 2084-03_Inhibitor_Dose_DryPowder_Activity. [Related pubchem assays (depositor defined):AID488944]; type: functional; details: Homo sapiens
INS1 = test: beta cell apoptosis inhibitors, cytokine rescue, dose response, luminescence, retest (AID 449756); type: functional, cell-based;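 note: cell death triggered by IL-1 beta plus TNF-alpha plus IFN-gamma mixture; protective hits raise ATP signal compared with cytokine alone wells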
[10] = inhibitors of HIV Env-driven cell fusion, dose response, cherry-pick (AID 652057); type: functional, cell-based
[11] = CEM21 lymphoblast cell cytotoxicity, dose response, cytotoxicity control for viral fusion inhibitor project, CellTiter-Glo luminescence, cherry-picked (AID 652042); type: functional, cell-based;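 note: potency for signal decrease meaning cytotoxicity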
[12] = ZM109 Env clade C HIV-1 fusion inhibitors, dose response, HeLa effector, CEM target cells, luciferase, cherry-pick (AID 652058); type: functional, cell-based
[13] = inhibitors of clade B AD8 Env fusion, dose response, cell-based, cherry-pick (AID 652062); type: functional;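 note: luciferase signal from cell-cell fusion driven by HIV-1 clade B AD8 Env; potency is for inhibitors of fusion seen as a drop in luminescence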
[14] = HEp-2 cell cytotoxicity, dose response, cytotoxicity control for RSV inhibitor project, HTS (AID 2410); type: functional; details: human respiratory syncytial virus
[15] = Luminescence Cell-Based Dose Retest to Confirm Inhibitors of Cancer Stem Cells. [Related pubchem assays (depositor defined):AID2717, AID2721]; type: functional; details: Homo sapiens
[16] = cytotoxicity in HMLE control line with eGFP shRNA, dose response, counter-screen for HMLE_sh_ECad selective toxicity project, cell-based, HMLE_sh_eGFP, luminescence (AID 463074); type: functional, Homo sapiens;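 note: HMLE human mammary epithelial cells expressing control shRNA against eGFP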
Cytochrome P450 2C19 = Cytochrome P450 2C19 (Homo sapiens, UniProt P33261); test: Cytochrome panel assay with activity outcomes. Panel member name: p450-cyp2c19 Compounds with AC50 equal or less than 10 uM are considered active; type: functional; details: read-out: AC50
Chain of Cytochrome P450 2C19 (P33261 whole entry): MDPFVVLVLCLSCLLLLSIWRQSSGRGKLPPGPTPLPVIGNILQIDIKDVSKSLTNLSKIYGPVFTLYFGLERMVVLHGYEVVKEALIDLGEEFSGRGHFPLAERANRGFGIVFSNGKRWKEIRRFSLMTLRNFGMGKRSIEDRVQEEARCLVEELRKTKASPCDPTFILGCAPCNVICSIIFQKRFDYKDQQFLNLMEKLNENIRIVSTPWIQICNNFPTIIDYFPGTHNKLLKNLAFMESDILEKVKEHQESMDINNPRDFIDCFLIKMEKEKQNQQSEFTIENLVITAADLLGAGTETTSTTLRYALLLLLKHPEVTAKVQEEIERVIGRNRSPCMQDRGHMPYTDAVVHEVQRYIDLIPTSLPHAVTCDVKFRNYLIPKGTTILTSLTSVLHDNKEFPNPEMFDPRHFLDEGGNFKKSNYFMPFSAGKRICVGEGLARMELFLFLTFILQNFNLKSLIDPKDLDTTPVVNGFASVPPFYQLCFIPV

Cytochrome P450 2D6 = Cytochrome P450 2D6 (Homo sapiens, UniProt P10635);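 note: CYP2D6 member of a cytochrome P450 panel assay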
Chain of Cytochrome P450 2D6 (P10635 whole entry): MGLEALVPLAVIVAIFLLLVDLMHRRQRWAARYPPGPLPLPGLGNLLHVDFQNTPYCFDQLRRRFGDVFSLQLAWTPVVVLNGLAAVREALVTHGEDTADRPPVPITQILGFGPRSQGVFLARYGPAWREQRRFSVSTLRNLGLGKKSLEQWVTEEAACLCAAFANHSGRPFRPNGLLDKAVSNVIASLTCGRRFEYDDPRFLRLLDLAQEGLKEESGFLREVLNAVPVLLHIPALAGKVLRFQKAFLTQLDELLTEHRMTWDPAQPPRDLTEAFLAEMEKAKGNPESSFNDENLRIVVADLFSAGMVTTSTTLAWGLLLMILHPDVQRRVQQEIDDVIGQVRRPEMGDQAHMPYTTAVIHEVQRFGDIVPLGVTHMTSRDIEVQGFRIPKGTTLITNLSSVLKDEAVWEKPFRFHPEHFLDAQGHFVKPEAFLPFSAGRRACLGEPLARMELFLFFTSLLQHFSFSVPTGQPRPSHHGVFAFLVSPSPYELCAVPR

Cytochrome P450 2C9 = Cytochrome P450 2C9 (Homo sapiens, UniProt P11712)
[17] = biological target: Glucose-6-phosphate 1-dehydrogenase (Homo sapiens, UniProt P11413); test: human G6PD enzyme inhibitors, dose response, selectivity assay for P. falciparum G6PD inhibitor project, biochemical, fluorescence (AID 504792); type: functional
HeLa = test: HeLa cell cytotoxicity, dose response, cytotoxicity control, 24 h, cherry-picked samples (AID 504726); type: functional, cell-based; details: Homo sapiens;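 note: potency for cytotoxicity as loss of luminescence signal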
ORF 73 = ORF 73 (Human herpesvirus 8, UniProt O40947); test: inhibitors of C-LANA binding to LBS DNA, dose response, biochemical, fluorescence polarization, cherry-picked samples (AID 504725); set-up: species or system Human gammaherpesvirus 8;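 note: fluorescence polarization of a labeled DNA duplex reporting LANA DNA binding; potency is for inhibitors that block LANA binding to the DNA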
Keap1/Nrf2 = Keap1/Nrf2 (Homo sapiens, UniProt Q14145); test: Keap1-Nrf2 protein-protein interaction inhibitors, dose response, biochemical, fluorescence polarization, cherry-picked samples (AID 588683)
Chain of Keap1/Nrf2 (Q16236 whole entry): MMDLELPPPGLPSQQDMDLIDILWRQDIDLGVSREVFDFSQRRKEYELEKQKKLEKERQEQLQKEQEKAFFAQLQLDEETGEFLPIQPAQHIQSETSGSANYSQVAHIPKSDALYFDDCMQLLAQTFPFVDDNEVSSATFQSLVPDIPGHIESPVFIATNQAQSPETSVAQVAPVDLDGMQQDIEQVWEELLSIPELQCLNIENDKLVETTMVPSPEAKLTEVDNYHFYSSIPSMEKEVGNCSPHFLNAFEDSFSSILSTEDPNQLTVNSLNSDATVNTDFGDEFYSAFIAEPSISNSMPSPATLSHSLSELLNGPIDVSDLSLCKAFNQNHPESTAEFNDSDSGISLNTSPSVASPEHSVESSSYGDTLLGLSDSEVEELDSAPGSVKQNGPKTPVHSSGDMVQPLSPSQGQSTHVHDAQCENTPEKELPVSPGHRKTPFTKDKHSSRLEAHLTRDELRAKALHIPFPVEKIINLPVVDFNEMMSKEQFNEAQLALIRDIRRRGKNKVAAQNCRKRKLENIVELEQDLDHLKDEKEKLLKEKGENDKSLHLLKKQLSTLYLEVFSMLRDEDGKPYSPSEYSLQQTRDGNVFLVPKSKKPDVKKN
Chain of Keap1/Nrf2 (Q14145 whole entry): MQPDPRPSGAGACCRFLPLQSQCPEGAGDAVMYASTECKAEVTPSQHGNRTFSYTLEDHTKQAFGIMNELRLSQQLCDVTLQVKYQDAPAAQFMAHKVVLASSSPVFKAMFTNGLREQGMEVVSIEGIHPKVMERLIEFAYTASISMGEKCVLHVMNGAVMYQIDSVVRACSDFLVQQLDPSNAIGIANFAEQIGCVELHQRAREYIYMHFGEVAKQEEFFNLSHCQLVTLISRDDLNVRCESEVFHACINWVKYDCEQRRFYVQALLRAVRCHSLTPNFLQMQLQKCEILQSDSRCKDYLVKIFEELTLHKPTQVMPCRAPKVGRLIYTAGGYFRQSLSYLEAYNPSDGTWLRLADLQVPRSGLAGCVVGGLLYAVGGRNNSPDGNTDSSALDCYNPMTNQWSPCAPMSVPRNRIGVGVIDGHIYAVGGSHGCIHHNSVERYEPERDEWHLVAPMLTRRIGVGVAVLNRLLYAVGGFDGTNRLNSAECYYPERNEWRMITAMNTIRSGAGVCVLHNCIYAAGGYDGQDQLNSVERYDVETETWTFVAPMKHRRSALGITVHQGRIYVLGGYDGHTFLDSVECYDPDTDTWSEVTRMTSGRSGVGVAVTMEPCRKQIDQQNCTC

Genome polyprotein = Genome polyprotein (dengue virus type 2, UniProt P29990); test: Dengue-2 NS5 methyltransferase inhibitors, primary screen, biochemical, confirmation dose response (AID 588689); type: functional
Chain of Genome polyprotein (P29990 2492-3391 limits assumed): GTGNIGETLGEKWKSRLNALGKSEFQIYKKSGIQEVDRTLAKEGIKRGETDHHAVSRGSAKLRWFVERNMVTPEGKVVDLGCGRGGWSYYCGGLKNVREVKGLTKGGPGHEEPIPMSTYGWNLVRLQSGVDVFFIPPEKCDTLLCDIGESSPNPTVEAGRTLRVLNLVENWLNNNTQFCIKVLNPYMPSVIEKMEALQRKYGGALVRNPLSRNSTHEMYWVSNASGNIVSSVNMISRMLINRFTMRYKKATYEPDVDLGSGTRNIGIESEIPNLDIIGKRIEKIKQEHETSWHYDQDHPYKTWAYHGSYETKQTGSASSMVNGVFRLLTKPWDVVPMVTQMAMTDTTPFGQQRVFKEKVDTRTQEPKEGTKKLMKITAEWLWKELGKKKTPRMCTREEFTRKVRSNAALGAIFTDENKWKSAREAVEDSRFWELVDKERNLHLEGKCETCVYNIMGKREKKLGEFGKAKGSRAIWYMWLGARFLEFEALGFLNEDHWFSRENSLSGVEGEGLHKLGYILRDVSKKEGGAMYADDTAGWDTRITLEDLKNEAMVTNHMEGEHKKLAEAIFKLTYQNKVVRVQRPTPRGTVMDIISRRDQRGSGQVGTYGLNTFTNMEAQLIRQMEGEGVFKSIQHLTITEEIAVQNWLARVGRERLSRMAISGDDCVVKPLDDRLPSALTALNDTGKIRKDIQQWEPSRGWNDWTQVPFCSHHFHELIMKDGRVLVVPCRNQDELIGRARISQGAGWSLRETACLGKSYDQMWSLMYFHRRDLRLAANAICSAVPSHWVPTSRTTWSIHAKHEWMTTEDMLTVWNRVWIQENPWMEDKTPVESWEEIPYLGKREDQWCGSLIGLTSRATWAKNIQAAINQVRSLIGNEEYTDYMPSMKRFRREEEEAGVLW

[18] = biological target: T2, Small ubiquitin-related modifier 1 (Homo sapiens, UniProt P63165); test: inhibitors of SUMO1 peptide binding, dose response, biochemical, fluorescence polarization, uHTS hits (AID 624382); type: functional; details: read-out: IC50_Mean
T2 sequence (P63165 whole entry): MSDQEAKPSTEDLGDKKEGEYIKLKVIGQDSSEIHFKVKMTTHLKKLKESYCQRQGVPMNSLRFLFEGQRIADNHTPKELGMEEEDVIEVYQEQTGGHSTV

[19] = biological target: T2, Small ubiquitin-related modifier 1; test: inhibitors of SUMO1 partner interactions, dose response, biochemical, FRET (AID 624383); type: functional; details: read-out: IC50_Mean
[20] = biological target: T3, Rac GTPase-activating protein 1 (Homo sapiens, UniProt Q9H0H5); test: MgcRacGAP GTPase-activating activity inhibitors, confirmation, biochemical, ADP Hunter fluorescence, primary and confirmatory (AID 624330); type: functional
T3 sequence (Q9H0H5 whole entry): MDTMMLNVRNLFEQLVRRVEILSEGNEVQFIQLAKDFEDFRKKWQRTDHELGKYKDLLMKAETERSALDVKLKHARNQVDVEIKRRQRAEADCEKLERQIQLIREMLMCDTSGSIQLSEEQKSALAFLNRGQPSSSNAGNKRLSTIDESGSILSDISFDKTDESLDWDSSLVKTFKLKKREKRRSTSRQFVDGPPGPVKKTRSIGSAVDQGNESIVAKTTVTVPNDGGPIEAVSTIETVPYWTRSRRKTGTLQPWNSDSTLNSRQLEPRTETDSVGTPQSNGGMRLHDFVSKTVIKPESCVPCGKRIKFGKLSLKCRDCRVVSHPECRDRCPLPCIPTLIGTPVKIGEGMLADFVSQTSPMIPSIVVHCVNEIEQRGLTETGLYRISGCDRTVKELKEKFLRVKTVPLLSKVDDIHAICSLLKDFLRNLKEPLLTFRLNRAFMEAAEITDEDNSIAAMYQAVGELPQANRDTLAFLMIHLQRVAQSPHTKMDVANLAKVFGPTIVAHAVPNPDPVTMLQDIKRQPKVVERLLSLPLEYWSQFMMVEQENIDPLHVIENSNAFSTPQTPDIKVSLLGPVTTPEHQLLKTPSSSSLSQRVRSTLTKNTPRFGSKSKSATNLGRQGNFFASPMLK

[21] = biological target: T4, Histone-lysine N-methyltransferase NSD2 (Homo sapiens, UniProt O96028); type: biochemical
T4 sequence (O96028 whole entry): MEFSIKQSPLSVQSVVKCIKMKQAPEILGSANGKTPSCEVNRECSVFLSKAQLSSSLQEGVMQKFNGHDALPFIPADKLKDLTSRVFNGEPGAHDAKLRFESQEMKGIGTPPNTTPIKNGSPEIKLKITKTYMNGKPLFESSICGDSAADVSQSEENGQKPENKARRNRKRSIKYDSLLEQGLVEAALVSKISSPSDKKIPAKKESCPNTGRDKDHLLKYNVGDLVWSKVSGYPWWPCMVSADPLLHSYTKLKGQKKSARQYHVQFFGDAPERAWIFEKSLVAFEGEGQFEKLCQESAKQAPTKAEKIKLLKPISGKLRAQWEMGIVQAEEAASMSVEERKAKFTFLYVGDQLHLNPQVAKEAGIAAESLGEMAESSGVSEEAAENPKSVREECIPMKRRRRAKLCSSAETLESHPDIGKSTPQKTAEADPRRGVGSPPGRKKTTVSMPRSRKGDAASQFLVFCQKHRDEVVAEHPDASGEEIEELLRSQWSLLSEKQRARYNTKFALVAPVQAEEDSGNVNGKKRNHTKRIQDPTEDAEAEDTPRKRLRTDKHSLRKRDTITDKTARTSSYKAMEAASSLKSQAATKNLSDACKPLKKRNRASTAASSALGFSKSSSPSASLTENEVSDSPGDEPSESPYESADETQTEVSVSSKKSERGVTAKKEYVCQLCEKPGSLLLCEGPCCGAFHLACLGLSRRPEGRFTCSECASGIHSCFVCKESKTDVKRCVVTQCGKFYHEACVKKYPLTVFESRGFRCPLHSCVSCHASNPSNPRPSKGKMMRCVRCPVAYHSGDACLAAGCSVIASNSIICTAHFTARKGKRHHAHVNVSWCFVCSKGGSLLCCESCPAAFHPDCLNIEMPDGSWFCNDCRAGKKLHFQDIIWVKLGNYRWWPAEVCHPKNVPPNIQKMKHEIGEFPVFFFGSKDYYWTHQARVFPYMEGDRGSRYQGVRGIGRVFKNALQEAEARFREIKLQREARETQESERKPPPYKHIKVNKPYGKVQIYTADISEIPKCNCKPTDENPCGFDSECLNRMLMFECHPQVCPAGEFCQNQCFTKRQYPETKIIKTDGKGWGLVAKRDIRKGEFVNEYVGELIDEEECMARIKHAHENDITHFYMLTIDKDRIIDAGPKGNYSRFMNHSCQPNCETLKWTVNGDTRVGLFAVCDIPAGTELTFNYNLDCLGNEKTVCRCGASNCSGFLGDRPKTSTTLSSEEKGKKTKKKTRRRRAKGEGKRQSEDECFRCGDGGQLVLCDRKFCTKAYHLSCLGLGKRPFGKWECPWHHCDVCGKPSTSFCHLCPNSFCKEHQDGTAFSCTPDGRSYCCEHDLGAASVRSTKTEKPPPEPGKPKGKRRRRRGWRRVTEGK

ELAV-like protein 1 = ELAV-like protein 1 (Homo sapiens, UniProt Q15717); test: Identify HuR specific inhibitors.; type: functional
Chain of ELAV-like protein 1 (Q15717 whole entry): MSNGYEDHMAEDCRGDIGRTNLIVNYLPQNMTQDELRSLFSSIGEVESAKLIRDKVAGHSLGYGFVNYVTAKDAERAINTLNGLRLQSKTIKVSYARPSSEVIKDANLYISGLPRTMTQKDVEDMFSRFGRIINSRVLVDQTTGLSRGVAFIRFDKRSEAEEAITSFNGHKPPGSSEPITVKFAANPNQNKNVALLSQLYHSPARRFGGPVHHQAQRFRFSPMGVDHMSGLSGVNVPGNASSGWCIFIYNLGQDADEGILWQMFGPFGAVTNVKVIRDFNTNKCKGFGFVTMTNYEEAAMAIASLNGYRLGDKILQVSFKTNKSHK

[22] = biological target: RNA-editing ligase 1, mitochondrial (Trypanosoma brucei brucei, UniProt P86926); test: TbREL1 ligase inhibitors, dose response, biochemical, fluorescence, Trypanosoma brucei (AID 1117295); type: functional
Chain of RNA-editing ligase 1, mitochondrial (P86926 whole entry): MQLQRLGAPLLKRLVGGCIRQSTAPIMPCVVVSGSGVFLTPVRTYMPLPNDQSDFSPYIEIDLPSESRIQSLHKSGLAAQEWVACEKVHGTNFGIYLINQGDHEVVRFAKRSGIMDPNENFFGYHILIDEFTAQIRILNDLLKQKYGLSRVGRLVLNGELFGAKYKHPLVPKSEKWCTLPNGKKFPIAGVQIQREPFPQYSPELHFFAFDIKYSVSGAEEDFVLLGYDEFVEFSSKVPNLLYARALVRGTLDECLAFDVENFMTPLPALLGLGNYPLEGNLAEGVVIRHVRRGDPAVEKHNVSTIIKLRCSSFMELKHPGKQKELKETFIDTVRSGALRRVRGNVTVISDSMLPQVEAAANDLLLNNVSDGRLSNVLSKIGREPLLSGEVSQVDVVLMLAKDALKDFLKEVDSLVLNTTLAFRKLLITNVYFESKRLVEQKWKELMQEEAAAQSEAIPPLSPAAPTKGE

[23] = biological target: Beta-adrenergic receptor kinase 1 (Homo sapiens, UniProt P25098); test: GRK2 inhibitors displacing RNA aptamer, dose response, biochemical, flow cytometry beads, FAM-aptamer, powder set 1 (AID 588720)
Chain of Beta-adrenergic receptor kinase 1 (P25098 whole entry, the tested form may be a part): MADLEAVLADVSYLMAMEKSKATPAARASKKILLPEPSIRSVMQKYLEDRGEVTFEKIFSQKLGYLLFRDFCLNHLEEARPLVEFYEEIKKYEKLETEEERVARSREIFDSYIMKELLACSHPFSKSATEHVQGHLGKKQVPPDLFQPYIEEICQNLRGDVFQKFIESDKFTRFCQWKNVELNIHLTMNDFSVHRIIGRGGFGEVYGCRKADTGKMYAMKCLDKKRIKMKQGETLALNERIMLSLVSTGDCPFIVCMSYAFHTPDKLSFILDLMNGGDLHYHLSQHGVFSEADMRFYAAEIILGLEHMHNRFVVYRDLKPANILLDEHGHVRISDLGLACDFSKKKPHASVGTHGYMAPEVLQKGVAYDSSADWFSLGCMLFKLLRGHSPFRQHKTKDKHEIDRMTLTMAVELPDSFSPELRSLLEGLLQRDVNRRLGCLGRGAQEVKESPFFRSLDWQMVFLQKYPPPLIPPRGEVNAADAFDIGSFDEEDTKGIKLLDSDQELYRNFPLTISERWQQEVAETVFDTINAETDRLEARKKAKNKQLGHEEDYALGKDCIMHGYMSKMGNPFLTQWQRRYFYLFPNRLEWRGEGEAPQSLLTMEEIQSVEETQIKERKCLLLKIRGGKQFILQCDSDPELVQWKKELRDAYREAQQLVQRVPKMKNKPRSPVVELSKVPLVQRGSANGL

[24] = biological target: T5, Carboxy-terminal domain RNA polymerase II polypeptide A small phosphatase 1 (Homo sapiens, UniProt Q9GZU7); test: inhibitors of CTDSP1, concentration-response testing, biochemical assay, absorbance-based, actives from ultra-high-throughput screening (AID 540297); type: functional
T5 sequence (Q9GZU7 whole entry): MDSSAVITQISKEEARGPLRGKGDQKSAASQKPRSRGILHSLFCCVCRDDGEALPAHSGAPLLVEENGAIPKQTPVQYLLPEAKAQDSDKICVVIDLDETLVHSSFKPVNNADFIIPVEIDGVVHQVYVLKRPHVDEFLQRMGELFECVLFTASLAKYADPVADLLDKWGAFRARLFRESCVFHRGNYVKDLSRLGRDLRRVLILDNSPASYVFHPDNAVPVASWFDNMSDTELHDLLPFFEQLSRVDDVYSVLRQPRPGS

COc1cc([N+](=O)[O-])cc(/C=N/NC(=O)c2ccc(NC(=O)c3ccc(C)cc3)cc2)c1O
inactive: IC50 [6] > 80 µM
active: EC50 [2] 2.62 µM | EC50 [3] 2.62 µM | EC50 [4] 1.88 µM | EC50 [5] 1.49 µM | IC50 (Jurkat) 6.36 µM | AC50 [7] 1.55 µM
inconclusive: EC50 [1] 1.01 µM

O=C(C1CCCCC1)N1CCN(c2ccccn2)CC1
active: AC50 (Candida albicans) 0.398 µM

CC1CCC(C(C)C)C(OC(=O)Cn2c(-c3ccccc3)[n+](C)c3ccccc32)C1 (stereo not drawn)
active: EC50 [8] 3.06 µM | EC50 [9] 2.97 µM | AC50 [7] 2.37 µM | AC50 (A-375) 41.3 µM | AC50 (INS1; Rattus norvegicus, INS1) 3.2 µM | AC50 (INS1; ins1) 2.71 µM | AC50 [10] 6.82 µM | AC50 [11] 8.36 µM | AC50 [12] 4.62 µM | AC50 [13] 5.44 µM

O=C(Nc1cccc2ccccc12)c1nn(C23CC4CC(CC(C4)C2)C3)cc1Br
inconclusive: AC50 (Cytochrome P450 2C19) 2.24 µM | AC50 (Cytochrome P450 2D6) | AC50 (Cytochrome P450 2C9)
active: CC50 [14] 27.8 µM | AC50 [15] 1.83 µM | AC50 [16] 40.6 µM

O=C(O)c1cc(N2C(=O)C=CC2=O)cc(N2C(=O)C=CC2=O)c1
inactive: IC50 [17] 61.8 µM | AC50 (HeLa) > 350 µM | IC50 [18] > 66.6 µM | IC50 (ELAV-like protein 1) 26.9 µM | IC50 [22] 12.3 µM
active: AC50 (ORF 73) 94.5 µM | AC50 (Keap1/Nrf2) 19 µM | IC50 (Genome polyprotein) 19.6 µM | IC50 [19] 13.7 µM | IC50 [20] 19.7 µM | AC50 [21] 6.9 µM

O=C(CCS(=O)(=O)c1ccc(Br)cc1)Nc1cc(F)ccc1F
active: EC50 [23] 2.47 µM | IC50 [24] 7.86 µM
